Values quoted from earlier work, collected in patent US20110264374A1, “Method, Computer Program Product and System for Individual Assessment of Alcohol Sensitivity” (UNIVERSITY OF VIRGINIA PATENT FOUNDATION, priority 2007, published 2011).

Tests used:
[1] = blood ethanol, oral ingestion; adopted from the literature [16, 24, 25]

time to peak amount of alcohol in the blood (after consumption of one standard drink): 30 to 45 min
remainder not metabolized, excreted in sweat, urine and breath (in vivo): 10%
share of alcohol entering the body completely metabolized in the liver (in vivo): More than 90%
share of consumed alcohol absorbed from the small intestine (oral consumption): approx. 80%
share of consumed alcohol absorbed from the stomach (oral consumption): approx. 20%
AUC (area under the curve) [1]: 230 µg·h/mL
Cmax [1]: 161.4 µg/mL
tmax [1]: 47 min
SMILES: CCO [ethanol, Ethyl Alcohol]
